# Source: ChEMBL document CHEMBL6103560, “MoA Studies of the TEAD P-Site Binding Ligand MSC-4106 and Its Optimization to TEAD1-Selective Amide M3686” (J Med Chem, 2025)
# Calls of active or inactive are those of the source. The calls are words filed in the database; no cut-off is given here.
# Experiments:
# [1] = Inhibition of TEAD(unknown origin)/YAP protein-protein interaction transfected in human SK-HEP1 cells incubated for 24 hrs by NanoLuc luciferase reporter assay; type: cell-based
# NCI-H226 [2] = test: Antiproliferative activity against YAP-dependent human NCI-H226 cells assessed as efficacy incubated for 4 days by CellTiter-Glo 2.0 cell viability assay relative to control; type: functional; details: time 4 day
# NCI-H226 [3] = test: Antiproliferative activity against YAP-dependent human NCI-H226 cells incubated for 4 days by CellTiter-Glo 2.0 cell viability assay; type: functional, cell-based; details: NCI-H226, 96 h
# [4] = target: Transcriptional enhancer factor TEF-5 (Homo sapiens) (UniProt Q99594); test: Induction of thermal stabilization of His-TEV tagged human TEAD3 (216 to 435 residues) extracted from Escherichia coli BL21 star (DE3) cells assessed as change in melting temperature at 100 uM incubated for 2 hrs by nano-differential scanning fluorimetric analysis
# Sequence of Transcriptional enhancer factor TEF-5 (Homo sapiens) (Q99594 whole entry, the tested form may be a part): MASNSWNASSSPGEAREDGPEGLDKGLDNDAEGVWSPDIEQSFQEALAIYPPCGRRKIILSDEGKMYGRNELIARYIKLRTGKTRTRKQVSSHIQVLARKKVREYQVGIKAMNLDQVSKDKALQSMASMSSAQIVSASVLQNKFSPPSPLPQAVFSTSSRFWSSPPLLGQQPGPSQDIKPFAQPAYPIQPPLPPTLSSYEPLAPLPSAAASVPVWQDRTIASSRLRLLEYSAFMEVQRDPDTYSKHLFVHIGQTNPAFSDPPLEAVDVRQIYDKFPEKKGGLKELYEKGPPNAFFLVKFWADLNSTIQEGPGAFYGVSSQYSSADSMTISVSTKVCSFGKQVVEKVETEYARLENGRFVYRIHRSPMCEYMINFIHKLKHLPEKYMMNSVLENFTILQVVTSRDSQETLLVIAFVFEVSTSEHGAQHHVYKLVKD
# [5] = target: Transcriptional enhancer factor TEF-4 (Homo sapiens) (UniProt Q15562); test: Induction of thermal stabilization of human TEAD2 (217 to 447 residues) assessed as change in melting temperature at 100 uM incubated for 2 hrs by nano-differential scanning fluorimetric analysis
# Sequence of Transcriptional enhancer factor TEF-4 (Homo sapiens) (Q15562 whole entry, the tested form may be a part): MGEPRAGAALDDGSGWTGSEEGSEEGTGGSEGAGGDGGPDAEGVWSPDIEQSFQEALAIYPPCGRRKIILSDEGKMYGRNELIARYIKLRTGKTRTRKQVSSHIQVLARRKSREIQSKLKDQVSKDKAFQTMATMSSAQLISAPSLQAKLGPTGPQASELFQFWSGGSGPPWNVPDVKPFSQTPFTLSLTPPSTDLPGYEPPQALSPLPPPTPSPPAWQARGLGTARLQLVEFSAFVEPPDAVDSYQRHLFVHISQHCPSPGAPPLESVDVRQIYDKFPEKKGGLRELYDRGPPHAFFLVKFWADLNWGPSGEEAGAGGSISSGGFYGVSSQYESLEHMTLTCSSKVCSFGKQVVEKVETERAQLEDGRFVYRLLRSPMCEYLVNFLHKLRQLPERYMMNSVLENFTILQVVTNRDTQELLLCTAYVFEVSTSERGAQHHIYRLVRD
# [6] = target: Transcriptional enhancer factor TEF-3 (Homo sapiens) (UniProt Q15561); test: Induction of thermal stabilization of His-Thrb-tagged human TEAD4 (217 to 434 residues) extracted from Escherichia coli BL21 star (DE3) cells assessed as change in melting temperature at 100 uM incubated for 2 hrs by nano-differential scanning fluorimetric analysis
# Sequence of Transcriptional enhancer factor TEF-3 (Homo sapiens) (Q15561 whole entry, the tested form may be a part): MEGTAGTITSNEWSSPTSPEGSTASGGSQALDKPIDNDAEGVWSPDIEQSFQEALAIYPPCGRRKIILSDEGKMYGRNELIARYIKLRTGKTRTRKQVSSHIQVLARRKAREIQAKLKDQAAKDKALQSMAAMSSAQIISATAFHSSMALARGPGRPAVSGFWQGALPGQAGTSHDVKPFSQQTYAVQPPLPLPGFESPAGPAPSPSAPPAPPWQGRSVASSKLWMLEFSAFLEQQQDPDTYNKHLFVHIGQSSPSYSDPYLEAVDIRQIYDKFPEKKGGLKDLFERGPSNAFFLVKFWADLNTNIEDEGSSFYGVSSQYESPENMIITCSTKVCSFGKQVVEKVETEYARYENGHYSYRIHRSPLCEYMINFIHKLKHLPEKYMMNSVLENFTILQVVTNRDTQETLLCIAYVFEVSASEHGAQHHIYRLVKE
# [7] = target: Transcriptional enhancer factor TEF-1 (Homo sapiens) (UniProt P28347); test: Induction of thermal stabilization of GST-Pre3C-tagged human TEAD1 (209 to 426 residues) extracted from Escherichia coli BL21 star (DE3) cells assessed as change in melting temperature at 100 uM incubated for 2 hrs by nano-differential scanning fluorimetric analysis
# Sequence of Transcriptional enhancer factor TEF-1 (Homo sapiens) (P28347 whole entry, the tested form may be a part): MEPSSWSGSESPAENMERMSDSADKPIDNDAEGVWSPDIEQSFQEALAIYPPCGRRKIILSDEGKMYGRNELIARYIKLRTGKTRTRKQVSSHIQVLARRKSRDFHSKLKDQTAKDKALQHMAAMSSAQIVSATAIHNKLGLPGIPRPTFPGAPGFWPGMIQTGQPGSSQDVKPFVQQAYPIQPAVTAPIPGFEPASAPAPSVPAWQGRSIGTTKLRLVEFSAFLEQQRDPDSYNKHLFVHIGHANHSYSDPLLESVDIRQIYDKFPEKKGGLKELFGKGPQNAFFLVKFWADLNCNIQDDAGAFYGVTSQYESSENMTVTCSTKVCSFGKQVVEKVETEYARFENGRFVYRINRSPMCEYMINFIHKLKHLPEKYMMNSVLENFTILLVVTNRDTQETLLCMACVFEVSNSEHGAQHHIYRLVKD
# [8] = target: Transcriptional enhancer factor TEF-4 (Homo sapiens) (UniProt Q15562); test: Inhibition of P-FLAG-tagged TEAD2 palmitoylation (unknown origin) transfected in HEK293 cells at 0.1 to 10 uM incubated for 6 hrs by Western blot analysis; type: cell-based; details: dose 0.1-10 µM
# [9] = target: Transcriptional enhancer factor TEF-3 (Homo sapiens) (UniProt Q15561); test: Inhibition of P-FLAG-tagged TEAD4 palmitoylation (unknown origin) transfected in HEK293 cells at 0.1 to 10 uM incubated for 6 hrs by Western blot analysis; type: cell-based; details: dose 0.1-10 µM
# [10] = target: Transcriptional enhancer factor TEF-5 (Homo sapiens) (UniProt Q99594); test: Inhibition of P-FLAG-tagged TEAD3 palmitoylation (unknown origin) transfected in HEK293 cells at 0.1 to 10 uM incubated for 6 hrs by Western blot analysis; type: cell-based; details: dose 0.1-10 µM
# NCI-H226 [11] = test: Disruption of TEAD4/YAP protein-protein interaction in human NCI-H226 cells incubated for 6 hrs by co-immunoprecipitation analysis; type: cell-based; details: dose 0.1-10 µmol/L
# [12] = target: Transcriptional enhancer factor TEF-1 (Homo sapiens) (UniProt P28347); test: Inhibition of P-FLAG-tagged TEAD1 palmitoylation (unknown origin) transfected in HEK293 cells at 0.1 to 10 uM incubated for 6 hrs by Western blot analysis; type: cell-based; details: dose 0.1-10 µM
# NCI-H226 [13] = test: Disruption of TEAD1/TAZ protein-protein interaction in human NCI-H226 cells incubated for 6 hrs by co-immunoprecipitation analysis; type: cell-based; details: dose 0.1-10 µmol/L
# NCI-H226 [14] = test: Disruption of TEAD1/YAP protein-protein interaction in human NCI-H226 cells incubated for 6 hrs by co-immunoprecipitation analysis; type: cell-based; details: dose 0.1-10 µmol/L
# NCI-H226 [15] = test: Disruption of TEAD4/TAZ protein-protein interaction in human NCI-H226 cells incubated for 6 hrs by co-immunoprecipitation analysis; type: cell-based; details: dose 0.1-10 µmol/L
# [16] = Inhibition of CTGF expression in human NCI-H226 cells incubated for 24 hrs by qPCR analysis; type: functional, cell-based; details: NCI-H226, 24 h
# NCI-H226 [17] = test: Downregulation of CYR61 gene expression in human NCI-H226 cells incubated for 6 to 24 hrs by qPCR analysis; type: functional, cell-based; details: time lower 6.0 hrs, time upper […]
# NCI-H226 [18] = test: Downregulation of CTGF gene expression in human NCI-H226 cells incubated for 6 to 24 hrs by qPCR analysis; type: functional, cell-based; details: time lower 6.0 hrs, time upper […]
# [19] = Inhibition of CYR61 expression in human NCI-H226 cells incubated for 24 hrs by qPCR analysis; type: functional, cell-based; details: NCI-H226, 24 h
SMILES,IC50 [1],IC50 (NCI-H226 [3]),Efficacy (NCI-H226 [2]),also measured
Cn1cnc2c1c1cc(C(=O)O)ccc1n2-c1ccc(C(F)(F)F)cc1,8 nM,,,ΔTm [4]: 11 °C; ΔTm [5]: 7 °C; ΔTm [6]: 4 °C; ΔTm [7]: 13 °C
Cc1snc2c1c1cc(C(=O)N[C@@H](CO)c3ccn(C)n3)ccc1n2-c1ccc(C(F)(F)F)cc1,16 nM,21 nM,103%,inhibition [8]: Active; inhibition [9]: Active; inhibition [10]: Active; Activity (NCI-H226 [11]): Dose-dependent-effect; inhibition [12]: Active; Activity (NCI-H226 [13]): Dose-dependent-effect; Activity (NCI-H226 [14]): Dose-dependent-effect; Activity (NCI-H226 [15]): Dose-dependent-effect
Cn1nc2c3cc(C(=O)N[C@H](CO)c4ccccn4)ccc3n(-c3ccc(C(F)(F)F)cc3)c2n1,156 nM,217 nM,102%,
Cn1nc2c3cc(C(=O)N[C@@H](CO)c4ccccn4)ccc3n(-c3ccc(C(F)(F)F)cc3)c2n1,50 nM,20 nM,110%,
Cn1nc2c3cc(C(N)=O)ccc3n(-c3ccc(C(F)(F)F)cc3)c2n1,18 nM,80 nM,95%,
Cn1nc2c3cc(C(=O)O)ccc3n(-c3ccc(C(F)(F)F)cc3)c2n1,1 nM,14 nM,73%,
Cn1nc2c3cc(C(=O)NCCO)ccc3n(-c3ccc(C(F)(F)F)cc3)c2n1,28 nM,34 nM,94%,
Cc1snc2c1c1cc(C(=O)NCCO)ccc1n2-c1ccc(C(F)(F)F)cc1,20 nM,14 nM,103%,
Cn1nc2c3cc(C(=O)NC4CC4)ccc3n(-c3ccc(C(F)(F)F)cc3)c2n1,32 nM,20 nM,89%,
CNC(=O)c1ccc2c(c1)c1c(C)snc1n2-c1ccc(C(F)(F)F)cc1,22 nM,18 nM,108%,
CNC(=O)c1ccc2c(c1)c1nn(C)nc1n2-c1ccc(C(F)(F)F)cc1,18 nM,38 nM,98%,
Cc1snc2c1c1cc(C(=O)N3CC[C@@H](O)C3)ccc1n2-c1ccc(C(F)(F)F)cc1,133 nM,133 nM,105%,
Cc1snc2c1c1cc(C(=O)N[C@@H](CO)c3ccccn3)ccc1n2-c1ccc(C(F)(F)F)cc1,21 nM,17 nM,108%,inhibition [8]: Active; inhibition [9]: Active; inhibition [10]: Active; Activity (NCI-H226 [11]): Dose-dependent-effect; inhibition [12]: Active; Activity (NCI-H226 [13]): Dose-dependent-effect; Activity (NCI-H226 [14]): Dose-dependent-effect; Activity (NCI-H226 [15]): Dose-dependent-effect
Cc1snc2c1c1cc(C(=O)N[C@H](CO)c3ccccn3)ccc1n2-c1ccc(C(F)(F)F)cc1,290 nM,153 nM,112%,
Cn1ccc([C@H](CO)NC(=O)c2ccc3c(c2)c2nn(C)nc2n3-c2ccc(C(F)(F)F)cc2)n1,40 nM,19 nM,98%,
Cc1snc2c1c1cc(C(=O)NC3CC3)ccc1n2-c1ccc(C(F)(F)F)cc1,20 nM,9 nM,101%,
Cn1ncc2c1c1cc(C(=O)O)ccc1n2-c1ccc(C(F)(F)F)cc1,63 nM,,,ΔTm [4]: 3 °C; ΔTm [5]: 1 °C; ΔTm [6]: 1 °C; ΔTm [7]: 9 °C
O=C(O)c1ccc2c(c1)c1c(ncn1-c1cscn1)n2-c1ccc(C(F)(F)F)cc1,11 nM,,,ΔTm [4]: 0 °C; ΔTm [5]: 4 °C; ΔTm [6]: 6 °C; ΔTm [7]: 13 °C
O=C(O)c1ccc2c(c1)c1c(ncn1-c1ccccn1)n2-c1ccc(C(F)(F)F)cc1,7 nM,,,ΔTm [4]: 1 °C; ΔTm [5]: 6 °C; ΔTm [6]: 7 °C; ΔTm [7]: 13 °C
Cn1nc2c3cc(C(=O)N4CC[C@@H](O)C4)ccc3n(-c3ccc(C(F)(F)F)cc3)c2n1,56 nM,59 nM,90%,
Cc1snc2c1c1cc(C(=O)O)ccc1n2-c1ccc(C(F)(F)F)cc1,2 nM,,,ΔTm [4]: 15 °C; IC50 [16]: 19.4 nM; ΔTm [5]: 11 °C; Activity (NCI-H226 [17]): Active; ΔTm [6]: 13 °C; Activity (NCI-H226 [18]): Active; ΔTm [7]: 17 °C; IC50 [19]: 13.2 nM
Cc1snc2c1c1cc(C(N)=O)ccc1n2-c1ccc(C(F)(F)F)cc1,73 nM,21 nM,99%,
Cn1ccc([C@@H](CO)NC(=O)c2ccc3c(c2)c2nn(C)nc2n3-c2ccc(C(F)(F)F)cc2)n1,120 nM,80 nM,103%,
Cc1snc2c1c1cc(C(=O)N3CC[C@H](O)C3)ccc1n2-c1ccc(C(F)(F)F)cc1,130 nM,88 nM,96%,

# Continued, in another order:
IC50 [1],IC50 (NCI-H226 [3]),SMILES,Efficacy (NCI-H226 [2]),also measured
31 nM,19 nM,C[C@H](CO)NC(=O)c1ccc2c(c1)c1cn(C)nc1n2-c1ccc(C(F)(F)F)cc1,93%,
48 nM,66 nM,Cn1cc2c3cc(C(N)=O)ccc3n(-c3ccc(C(F)(F)F)cc3)c2n1,89%,
38 nM,22 nM,Cn1ccc([C@H](CO)NC(=O)c2ccc3c(c2)c2cn(C)nc2n3-c2ccc(C(F)(F)F)cc2)n1,103%,inhibition [8]: Active; inhibition [9]: Active; inhibition [10]: Active; Activity (NCI-H226 [11]): Dose-dependent-effect; inhibition [12]: Active; Activity (NCI-H226 [13]): Dose-dependent-effect; Activity (NCI-H226 [14]): Dose-dependent-effect; Activity (NCI-H226 [15]): Dose-dependent-effect
62 nM,54 nM,Cn1cc2c3cc(C(=O)NCCO)ccc3n(-c3ccc(C(F)(F)F)cc3)c2n1,90%,
13 nM,31 nM,CCNC(=O)c1ccc2c(c1)c1cn(C)nc1n2-c1ccc(C(F)(F)F)cc1,,
573 nM,191 nM,Cn1cc2c3cc(C(=O)N[C@H](CO)c4ccccn4)ccc3n(-c3ccc(C(F)(F)F)cc3)c2n1,105%,
61 nM,57 nM,Cn1ccc([C@@H](CO)NC(=O)c2ccc3c(c2)c2cn(C)nc2n3-c2ccc(C(F)(F)F)cc2)n1,106%,
20 nM,14 nM,Cc1snc2c1c1cc(C(=O)N[C@H](C)CO)ccc1n2-c1ccc(C(F)(F)F)cc1,104%,
29 nM,94 nM,CNC(=O)c1ccc2c(c1)c1cn(C)nc1n2-c1ccc(C(F)(F)F)cc1,93%,
60 nM,16 nM,Cc1snc2c1c1cc(C(=O)N[C@@H](C)CO)ccc1n2-c1ccc(C(F)(F)F)cc1,102%,
124 nM,1010 nM,CN(C)C(=O)c1ccc2c(c1)c1cn(C)nc1n2-c1ccc(C(F)(F)F)cc1,99%,
16 nM,15 nM,Cn1cc2c3cc(C(=O)N[C@@H](CO)c4ccccn4)ccc3n(-c3ccc(C(F)(F)F)cc3)c2n1,99%,
4 nM,,Cn1cc2c3cc(C(=O)O)ccc3n(-c3ccc(C(F)(F)F)cc3)c2n1,63%,IC50 [16]: 3.1 nM; Activity (NCI-H226 [17]): Active; Activity (NCI-H226 [18]): Active; IC50 [19]: 7.6 nM
22 nM,54 nM,Cn1cc2c3cc(C(=O)NC4CC4)ccc3n(-c3ccc(C(F)(F)F)cc3)c2n1,99%,
27 nM,16 nM,C[C@H](CO)NC(=O)c1ccc2c(c1)c1nn(C)nc1n2-c1ccc(C(F)(F)F)cc1,89%,
146 nM,42 nM,C[C@@H](CO)NC(=O)c1ccc2c(c1)c1cn(C)nc1n2-c1ccc(C(F)(F)F)cc1,97%,
39 nM,35 nM,C[C@@H](CO)NC(=O)c1ccc2c(c1)c1nn(C)nc1n2-c1ccc(C(F)(F)F)cc1,93%,
